Test results as given in patent publication US20260176393A1, “PRESERVATIVE COMPOSITION FOR BIOLOGICAL SAMPLES” (KANAZAWA UNIVERSITY, priority 2022, published 2026).

Tests used:
[1] = Osmotic pressure, vapor pressure-type osmometer; format: physicochemical; details: 10 wt % in Water
Description: A vapor pressure-type osmometer (VAPRO 5600; Wescor, Inc., Logan, UT, USA) was used, and an osmotic pressure was measured in a 10 mL standard chamber (room temperature: 25° C., apparatus sensor temperature: 33° C., sample volume: 10 μL).

[2] = tested on: Human kidney cells (BOSC); assay: Cryopreservation test, survival rate of BOSC cells; format: cell-based; details: 10 wt % in Water; after cryopreservation
Description: In the case of adherent cells, the cells to be frozen were treated with trypsin and recovered by centrifugation. In the case of floating cells, the cells to be frozen were recovered by centrifugation. The cells of each type were diluted with Dulbecco's modified Eagle medium (DMEM), and the cell concentration was measured. In the present specification, the DMEM solution is also simply referred to as a medium.
Subsequently, each dilution was dispensed at 1 mL/tube to 1.5 mL tubes, and the cells were suspended in a cryopreservative solution containing 100 μL of a zwitterion polymer solution and frozen at a cooling temperature of −85° C. and a cooling rate of −1° C./min by a cell freezing container Mr. Frosty®. In the present Examples, the commercially available cryopreservative solution used was CultureSure® (manufactured by FUJIFILM Wako Pure Chemical Corp.) unless otherwise specified. The cryopreservation time was set to 48 hours. Then, the cells were thawed at a tube temperature of 37° C. and used in live cell counting.
The cells were thawed by the addition of 1 mL of a medium to the cryopreservation vial at 37° C. and centrifuged to remove a supernatant. The cells thus obtained by centrifugation were resuspended in a medium, followed by live cell counting.

mouse fibroblasts (mNF) = assay: Cryopreservation test, survival rate of mNF cells; format: cell-based; details: 10 wt % in Water; after cryopreservation
Description: In the case of adherent cells, the cells to be frozen were treated with trypsin and recovered by centrifugation. In the case of floating cells, the cells to be frozen were recovered by centrifugation. The cells of each type were diluted with Dulbecco's modified Eagle medium (DMEM), and the cell concentration was measured. In the present specification, the DMEM solution is also simply referred to as a medium. […] Frosty®. In the present Examples, the commercially available cryopreservative solution used was CultureSure® (manufactured by FUJIFILM Wako Pure Chemical Corp.) unless otherwise specified. The cryopreservation time was set to 48 hours. Then, the cells were thawed at a tube temperature of 37° C. and used in live cell counting. The cells were thawed by the addition of 1 mL of a medium to the cryopreservation vial at 37° C. and centrifuged to remove a supernatant. The cells thus obtained by centrifugation were resuspended in a medium, followed by live cell counting.

SMILES: C=Cn1cc[n+](CCCC(=O)[O-])c1 [VimC3C]
- Osmotic pressure [1]: 860 mOsm/kg
- Survival rate (BOSC) [2]: 0.15
- Survival rate (mNF) (mouse fibroblasts (mNF)): 0.42
